Converted amounts (≈) assume the structure as drawn.
How the values were obtained:
[1] = test system: B. bovis Mo7 strain; experiment: Blasticidin inhibition of B. bovis growth in in vitro cultures; assay type: cell-based, Babesia bovis
Experimental: B. bovis parasites of the Mo7 strain were cultured in ˜1 ml cultures in 24 well plates containing 10% bovine red blood cells. Triplicate wells were cultured with or without increasing amounts of blasticidin added to the culture media at […], 2.4, and 4.8 μg/ml, prepared from a 5 mg/ml stock solution of blasticidin (Invitrogen) in sterile water, for three consecutive days. Culture media was replaced daily. The percentage of parasitized erythrocytes (ppe) was estimated by microscopic counting of Diff-Quik (Dade Behring) stained slides as described (Suarez and McElwain, (2008) Exp Parasitol. 118: 498-504). Percentage B. bovis inhibition was calculated by dividing the mean ppe in triplicate blasticidin treated wells by the mean ppe in triplicate control wells grown in the absence of blasticidin, and multiplying by 100.
To determine whether B. bovis growth could be inhibited with blasticidin, and to estimate the concentration of blasticidin appropriate for establishing a blasticidin/blasticidin deaminase (bsd) transfection system, B. bovis Mo7 strain parasites were cultured in the presence of varying concentrations of blasticidin ranging from 0 to 5 μg/ml in triplicate wells. The percentage of parasitized erythrocytes (ppe) in each well was determined for the first three days after splitting the cultures in each well to a starting ppe of 0.5%. […] Subsequent stable transfection experiments were performed using either 0.3 or 0.6 μg/ml, blasticidin.

[2] = test system: B. bovis control parasites transfected with pBS; experiment: Growth curves of mock pBS-transfected control parasites with blasticidin; assay type: cell-based, Babesia bovis; conditions: blasticidin at 6.4 μg/ml
Experimental: (§1) Growth characteristics of the blasticidin selected parasite line 1-2-124 were examined and compared with mock pBS-transfected control parasites in the presence or absence of 6.4 μg/ml blasticidin. […] In addition, no differences were observed between growth rates of parasite cell line 1-2-124 and control parasites in the absence of blasticidin.

[3] = test system: B. bovis transfected parasite line 1-2-124 (gfp-bsd); experiment: Growth curves of blasticidin selected parasite line 1-2-124 with blasticidin; assay type: cell-based, Babesia bovis; conditions: blasticidin at 6.4 μg/ml, 10 times higher than used for original selection
Experimental: as §1

[4] = test system: Plasmodium falciparum parasites; conditions: calculated for Plasmodium falciparum parasites, given for comparison; cited from earlier work

## CN(CC[C@H](N)CC(=O)N[C@H]1C=C[C@H](n2ccc(N)nc2=O)O[C@@H]1C(=O)O)C(=N)N [blasticidin]
[1]; Mo7 strain, in vitro culture, after three days of drug selection, percentage of parasitized erythrocytes
  50% inhibitory concentration of blasticidin (IC50): ~0.4 µg/mL
[1]; Mo7 strain, in vitro culture, three days
  concentration of blasticidin resulting in negligible parasite growth: 0.64 to 1.25 µg/mL
[1]; blasticidin dose of 5 μg/ml, after three days in culture
  infected erythrocytes in stained slides: No B. bovis infected erythrocytes could be detected
[2]
  parasite growth in the presence of blasticidin: not able to grow
[3]
  parasite growth with or without blasticidin: able to grow at similar rates
[4]
  IC50: 0.35 µg/mL (≈ 0.829 µM)

Source: patent publication US9707283B2, “Genetically modified babesia parasites expressing protective tick antigens and uses thereof” (The United States of America as represented by the …, priority 2007, dated 2017)
